Experimental findings from US20050222235A1, “Drugs for improving the prognosis of brain injury and a method of screening the same” (priority 2002, published 2005) are described below.

What all share (assay type): in vivo, mouse
For assay [1], the system named is Stab wound model mice. The experiment in a line: Stab wound model: Evans Blue dye leakage to the injured site. As to conditions: for leakage of the dye to the injured site: Stab wound model mice, Evans Blue after 2 days. As to the method:
Degree of injury was quantified by a dye leakage (Evans Blue) to the injured site (Kakimura Y, et al., Nature Medicine, 4:1078-1080, 1998). After 2 days from injury, the maximum value was noted and, after that, it lowered as a result of recovery (refer to FIG. 20).
An effect of BW A868C or ramatroban ((±)-(3R)-3-(4-fluorobenzenesulfonamide)-1,2,3,4-tetrahydrocarbazol-9-propionic acid) which is an antagonist for prostaglandin D receptor to Stab wound model mice was evaluated using leakage amount of dye to the injured site as an index. Thus, Evans Blue dye was intravenously administered after 2 days from occurrence of brain injury and the amount of leakage of the dye to the tissue during 2 hours thereafter was measured. When BW A868C (1 mg/kg) was intravenously administered after 3 hours and after one day from occurrence of the brain injury, leakage of the dye to the injured site was suppressed (refer to FIG. 27).
An effect of pinagladin which is a DP receptor antagonist to a Stab wound model was evaluated by a leakage amount of dye to the injured site. Thus, Evans Blue was intravenously injected on the second day after occurrence of brain injury and leakage amount of the dye into the tissue during 2 hours thereafter was measured. As a result, when pinagladin (10 mg/kg) was orally administered before 1 hour and after one day of the occurrence of the injury, an increase in leakage amount of Evans Blue dye noted as a result of brain injury was suppressed (refer to FIG. 24).

In assay [2] the test system is Twitcher mice. The experiment in a line: Twitcher mice (hereditary demyelinating disease): astroglia activation and DP receptor expression. The note with it: subcutaneous 30 mg/kg/day for 14 days. From the text: Changes in mRNA of H-PGDS and DP receptor as a result of demyelination were quantified by a quantitative RT-PCR method using a model mouse Twitcher of human Krabbe diseases which is a disease where galactosylceramidase is deficient (Kobayashi T, et al., Brain Res., 202:479-483, 1980; Duchen L W, et al., Brain, 103:695-710, 1980; Sakai N, et al., J. Neurochem., 66:1118-1124, 1996; Taniike M et al., J. Neuropathol. Exp. Neurol., 58:644-653, 1999) (refer to FIG. 1). Expression of mRNA of both H-PGDS and DP receptor increased as a result of demyelination.
HQL-79 (4-benzhydryloxy-1-{3-(1H-tetrazol-5-yl)-propyl}piperidine) which is an H-PGDS inhibitor was subcutaneously administered to Twitcher mice at the dose of 30 mg/kg/day for 14 days whereupon activation of astroglia cells was suppressed and, at the same time, expression of DP receptor in astroglia cells lowered (refer to FIG. 13).

Assay [3] relates to Stab wound model mice. Put plainly: Stab wound model of traumatic brain injury: recovery / progress of brain injury (histology).
The subject of assay [4] is DP receptor. Put plainly: Stab wound model: DP receptor mRNA in tissue injury region. The note with it: oral 30 mg/kg/day for 4 days from one hour before injuring.
Setting [5] is: traumatic brain injury, administration started after 24 hours from injury.

Consider `O=C(O)CCn1c2c(c3ccccc31)C[C@H](NS(=O)(=O)c1ccc(F)cc1)CC2` [ramatroban, (+)-(3R)-3-(4-fluorobenzenesulfonamide)-1,2,3,4-tetrahydrocarbazol-9-propionic acid], for which the “leakage of the dye to the injured site” value in assay [1] (30 mg/kg oral after 3 hours and after one day from injury, leakage during 2 hours) is “suppressed”.
As for `c1ccc(C(OC2CCN(CCCc3nnn[nH]3)CC2)c2ccccc2)cc1` [HQL-79, 4-benzhydryloxy-1-{3-(1H-tetrazol-5-yl)-propyl}piperidine], in assay [2], the “activation of astroglia cells” value is on record as “suppressed” and the “expression of DP receptor in astroglia cells” value is on record as “lowered”. Moreover, in assay [3] (Stab wound model, oral 30 mg/kg/day for 4 days from one hour before injuring), the “recovery of brain injury” value was “promotion of recovery”. In addition, the “tissue injury (expansion of injury)” value in assay [3] (setting [5]) is on record as “inhibitory effect”. The “amount of mRNA of DP receptor in tissue injury region” value in assay [4] is given as “lowered”. In assay [1] (Stab wound model, oral 30 mg/kg/day, administration started one hour before injury), the “leakage reaction of dye to the injured site” value is “therapeutic effect was also confirmed”. The “tissue injury (leakage of dye)” value in assay [1] (setting [5]) is “inhibitory effect”.
Take `O=C(O)CCCCCCC1C(=O)N(Cc2ccccc2)C(=O)N1NCC(O)C1CCCCC1` (racemic) [BW A868C, (±)-3-benzyl-5-(6-carboxyhexyl)-1-(2-cyclohexyl-2-hydroxyethylamino)-hydantoin]: the “recovery of brain injury” value in assay [3] (Stab wound model mice, intravenous 1 mg/kg/day for 4 days from the initial day of injury) is recorded as “promotion of recovery”. Also, in assay [1] (1 mg/kg intravenous after 3 hours and after one day from injury, leakage during 2 hours), the “leakage of the dye to the injured site” value was “suppressed”.
Turning to `CC1(C)[C@H]2C[C@H](C/C=C\CCCC(=O)O)[C@@H](NC(=O)c3csc4ccccc34)[C@@H]1C2` [pinagladin, (Z)-7-[(1R,2R,3S,5S)-2-(benzo[b]-thiophene-3-ylcarbonylamino)-10-norpinan-3-yl]hepta-5-enoic acid], the “progress of brain injury (histopathological investigation)” value in assay [3] (Stab wound model, in any of administration routes) is reported as “suppressed the progress of brain injury”. Moreover, the “increase in leakage amount of Evans Blue dye as a result of brain injury” value in assay [1] (Stab wound model, 10 mg/kg oral before 1 hour and after one day of injury, Evans Blue on second day, leakage during 2 hours) is listed as “suppressed”.
